“Also recorded” adds a separate entry of the source.
Tests used:
[1] = molecular target: T1, His-KDM4A1-359-Bio (Homo sapiens, UniProt O75164); test: Biolayer interferometry binding to KDM4A
T1 construct: KDM4A protein (residues 1-359) was cloned into the pNIC-Bio3 plasmid, which incorporates a C-terminal AviTag; made in house; host or cells: E. coli BL21(DE3)Rosetta co-transfected with pCDF-BirA
T1 sequence (O75164 1-359): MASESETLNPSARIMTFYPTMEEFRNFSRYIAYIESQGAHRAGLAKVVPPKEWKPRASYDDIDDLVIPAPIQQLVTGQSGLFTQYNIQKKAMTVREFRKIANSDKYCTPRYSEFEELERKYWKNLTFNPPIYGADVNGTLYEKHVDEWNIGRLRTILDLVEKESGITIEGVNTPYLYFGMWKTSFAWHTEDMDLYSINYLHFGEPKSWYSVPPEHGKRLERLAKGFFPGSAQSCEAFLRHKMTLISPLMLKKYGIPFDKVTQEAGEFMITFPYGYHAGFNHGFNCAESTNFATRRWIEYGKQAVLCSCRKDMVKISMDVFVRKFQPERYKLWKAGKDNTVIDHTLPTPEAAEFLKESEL
Protocol: The formaldehyde dehydrogenase coupled KDM assay was used to determine the mode of inhibition[34], using 0.5 μM His-KDM4A1–359. Prism 5.0 (GraphPad) was used to fit in mix-mode inhibition, to determine the kinetic parameters. Binding constants for CPs and H3(1–15)K9me3 were measured using biolayer interferometry (OctetRed 384, ForteBio) in buffer (50 mM HEPES (pH 7.5), 150 mM NaCl, 10 μM ammonium iron(II) sulphate). His-KDM4A1–359-Bio (70 nM) was immobilized onto super streptavidin biosensor and subjected to different peptide concentrations in buffer. Data analysis was performed using ForteBio Data Aalysis (v6.4).
KDM4A1-359 was immobilized and analysed for binding to peptides at different concentrations.
The concentration of KDM4A in the assay mixture was 0.5 µM.

[2] = molecular target: T2, FLAG-KDM4E (Homo sapiens, UniProt B2RXH2); test: CETSA, FLAG-KDM4E in U2OS cells; assay type: cell-based; conditions: 0.5 µM
T2 construct: expressed in transfected cells; host or cells: U2OS
T2 sequence (B2RXH2 1-506): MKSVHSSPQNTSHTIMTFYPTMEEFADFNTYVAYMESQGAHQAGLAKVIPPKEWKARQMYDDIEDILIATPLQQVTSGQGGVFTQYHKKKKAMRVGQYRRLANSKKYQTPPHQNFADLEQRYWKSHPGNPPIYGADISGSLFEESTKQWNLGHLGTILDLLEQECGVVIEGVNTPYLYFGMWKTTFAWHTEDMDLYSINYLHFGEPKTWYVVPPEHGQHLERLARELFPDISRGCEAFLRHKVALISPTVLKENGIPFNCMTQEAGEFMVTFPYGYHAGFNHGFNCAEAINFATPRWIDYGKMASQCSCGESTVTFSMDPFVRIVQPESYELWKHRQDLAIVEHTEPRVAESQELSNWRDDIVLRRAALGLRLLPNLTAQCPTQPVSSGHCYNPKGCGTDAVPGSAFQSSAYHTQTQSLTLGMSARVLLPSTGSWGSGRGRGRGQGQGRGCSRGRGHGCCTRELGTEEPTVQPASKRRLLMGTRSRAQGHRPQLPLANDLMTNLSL
Protocol: For CETSA melting curve experiments, 80% confluent U2OS cells in a 75 cm^2 flask were transfected with a plasmid encoding full-length Flag-tagged KDM4A1–1,064 (ref. [15]) or KDM4E1–506 (ref. [20]) using Lipofectamine 2000 (Thermo Scientific) and incubated for 4 h. The cells were washed with PBS buffer and media replaced with fresh DMEM with 10% FBS, supplemented with cyclic peptides in DMSO (0.1% DMSO final). Cell dosing was carried out for 20 h at 37 °C. Control cells were dosed only with DMSO. The cells were trypsinized and washed thrice with PBS, by centrifugation (300 g, 3 min, 4 °C). Cells were re-suspended in PBS supplemented with Complete Protease inhibitor cocktail (Sigma) and divided into 8–10 aliquots (100 μl) containing equal cell numbers in PCR tubes. For ITDRF CETSA experiments, approximately 6 × 10^6 cells were seeded evenly into nine 25 cm^2 flask and adhered before transfection. After 4 h of incubation, the cells were washed with PBS buffer and the media replaced with fresh DMEM with 10% FBS supplemented with cyclic peptides at a final concentration between 0 and 4,000 nM (0.1% DMSO final). Cells were trypsinized and washed thrice with PBS using centrifugation (300 g, 3 min, 4 °C). Cells were re-suspended in PBS supplemented with protease inhibitor cocktail (Sigma), aliquots (100 μl) containing equal cell numbers in PCR tubes were prepared. […] For ITDRF, tubes were incubated at approximately the Tm of the proteins of interest as determined by CETSA melting curve experiments, for example, 55 °C (Tm for actin) for 3 min, followed by room temperature for 3 min. […]
The samples (supernatant) were run on SDS–PAGE (NuPage Novex Bis-Tris 4–12% polyacrylamide gels with NuPAGE MES SDS running buffer (Thermo Scientific)) and transferred onto nitrocellulose membranes using either the iBlot blotting system. FLAG-KDM4A levels were determined by immunoblotting using a monoclonal mouse anti-FLAG primary antibody (F1804, Sigma), at a dilution of 1: 1,000 in PBS-T buffer containing Seablock Reagent Salmon Plasma (2% v/v, Calbiochem). […]

Question: Which results are given for DYVYNTRSGWRWYTC [CP2]?
Answer: KDM4A Binding kdiss [1]: 0.00407 s⁻¹; KDM4A Binding kon [1]: 137000 M⁻¹ s⁻¹; CETSA stabilization / Tm shift of FLAG-KDM4E [2]: No significant changes in the Tm shift; also recorded: not stabilized

Reference: publication PMC5384220 (Nature Communications, 2017)
